Data: patent US20100069319A1, “Mercaptopurine derivatives and uses thereof” (priority 2007, published 2010)

Tests used:
B-CLL cells = assay: Cell death by trypan blue dye exclusion / PI; format: cell-based, human; conditions: 16 h
Procedure: (§1) Cell death was monitored by trypan blue dye exclusion test or propidium iodide (PI) incorporation. Treated cells were incubated with PI (2 μg/ml) for 20 min at 37° C., washed with HBS and examined by fluorescence microscopy or analyzed by flow cytometry using fluorescence-activated cell sorting (Becton Dickinson FACScan Instrument using CellQuest software (BD Bioscience, San Jose, Calif.). Monolayer cells were trypsinized and washed with HBS before FACS analysis.
(§2) In parallel, the trypan blue dye exclusion test was used to assess cell death. In particular, different concentrations of 6MP and SA-6MP were applied to various cell cultures (Daudi and Hela cells, each at 30,000 cells/well) as described in Materials and Methods. The cells were stained with trypan blue to monitor the lethal effect of several concentrations of the tested conjugates as the percentage of dead cells. As shown in FIG. 3A-3D, cell death induced by 6-MP and SA-6MP was both concentration and cell type dependent. […] SA-6MP at concentrations higher than 150 μM reduced the residual viability to 75% (FIG. 3D).

Hela cells = assay: Cell death by trypan blue dye exclusion / PI; format: cell-based, human; conditions: 16 h; for sensitivity to treatment (cell death, words): 100 μM
Procedure: as §1, §2

MDR HT-29 cells [1] = assay: Cell death by trypan blue dye exclusion / PI; format: cell-based, human; conditions: 16 h; for sensitivity to treatment (cell death, words): MDR HT-29, 100 μM
Procedure: as §1, §2

Daudi cells [2] = assay: Cell death by trypan blue dye exclusion / PI; format: cell-based; conditions: 16 h
Procedure: as §1, §2

MDR HT-29 cells [3] = assay: Cell death assessment by PI staining, phase-contrast and fluorescence microscopy; format: cell-based, human; conditions: MDR HT-29, 150 μM, 16 h
Procedure: as §1
In order to determine the toxic effect of 6-MP and SA-6MP on multidrug resistant cell lines, MDR HT-29 cells were treated for 16 h with 150 μM of either 6-MP or SA-6MP for 16 h, and were then stained with PI.

Daudi cells [4] = assay: XTT cell proliferation assay; format: cell-based; conditions: 16 h
Procedure: (§3) Cell proliferation was determined by the XTT viability assay in 96-well plates, based on the reduction of tetrazolium salt to soluble formazan compounds by living cells. Cells (10,000-15,000 cells/well) were seeded in a 96-well plate. After 16 h incubation with various concentrations of 6-MP, 6-MPR and their S-allylthio-derivatives, 50 μl of XTT/PMS mixture (50 μM PMS, 0.1% XTT in medium) was added onto the cells. After an incubation period of 3-4 h at 37° C. the absorbance of the samples was measured in an ELISA Reader at 450 nm. SDS (1%, 10 μl/well) was added to reference wells before adding the XTT/PMS solution.
(§4) The inhibitory effects of the various prodrugs on Daudi leukemia cell and on monolayer N87 cells were compared. […] XTT was added to the wells for 3 h at 37° C. Cell viability was monitored using an ELISA reader at 450 nm, as described in Materials and Methods.

N87 cells = assay: XTT cell proliferation assay; format: cell-based, human; conditions: 16 h
Procedure: as §3, §4

[5] = system: human peripheral blood mononuclear cells (PBMCs); conditions: after 4 days of treatment, read-out: IC50, T-cell mitogen-induced blastogenesis; cited from earlier work
HL-60 = assay: Anti-proliferative concentration IC50 (Table 2); format: cell-based, human; conditions: Homo sapiens; HL-60, 16 h, tested at 0-100 μM; read-out: Anti-proferative concentration - IC50 (mean ± SE)
Procedure: as §3
(§5) The results of viability and proliferation were expressed as mean values±SD (n=3-6). For each cell line, the results were analyzed using two-way analysis of variance (ANOVA) followed by Bonferroni's posttest for the factors of the drugs used and their various concentrations, considering p<0.05 as significant. IC50 values (mean±SEM) were obtained from the linear range of the viability curve versus drug concentration (XTT assay).
(§6) In particular, cell in suspension, namely, Daudi, HL-60, U937, Molt-4, Jurkat and B-CLL, were tested at prodrug concentration of 0-100 μM, and monolayer cells, namely, Hela HtTA-1, MDR HT-29 and N87, were tested at prodrug concentration of 0-200 μM. in both cases, cell viability was determined by trypan blue dye exclusion assay. Data are presented in Table 2 hereinbelow for 6MP derivatives-treated for 16 h.

N87 = assay: Anti-proliferative concentration IC50 (Table 2); format: cell-based, human; conditions: Homo sapiens; N87, 16 h, tested at 0-200 μM; read-out: Anti-proferative concentration - IC50 (mean ± SE)
Procedure: as §3, §5, §6

IC50 (HL-60)	SMILES	sensitivity to treatment (B-CLL cells; 100-200 μM)	sensitivity to treatment (cell death, words) (Hela cells)	viability at 200 µM (Hela cells; Homo sapiens, 200 μM)	sensitivity to treatment (cell death, words) (MDR HT-29 cells [1])	effect on cell viability (Daudi cells [2]; concentrations higher than 100 μM)	epithelial-like growth / cell death (MDR HT-29 cells [3])	cell proliferation (Daudi cells [4]; 0-100 μM)	cell proliferation (N87 cells; N87, 0-100 μM)	proliferation (residual) (N87 cells; N87, 150 μM)	IC50 [5]	residual viability (B-CLL cells; concentrations higher than 150 μM)	viability at 150 µM (Hela cells; Homo sapiens, 150 μM, read-out: viability compared to non-treated cells)	viability at 150 µM (MDR HT-29 cells [1]; Homo sapiens, MDR HT-29, 150 μM, read-out: viability compared to non-treated cells)	viability at 50 µM (Daudi cells [2]; Homo sapiens, 50 μM, read-out: residual viability)	residual proliferation (Daudi cells [4]; 50 μM)	viability at 50 µM (N87 cells; Homo sapiens, N87, 50 μM, read-out: residual proliferation / viability)	IC50 (N87)
–	Sc1ncnc2nc[nH]c12 [6-MP, 6-Mercaptopurine, reference compound]	almost insensitive	almost non-sensitive	75%	almost non-sensitive	no significant effect on cell viability	no inhibition was observed	no significant loss of cell proliferation	no significant loss of cell proliferation	~80%	0.149 ± 0.125 µM	–	–	–	–	–	–	–
42 ± 3.8 µM	C=CCSSc1ncnc2nc[nH]c12 [SA-6MP, S-allylthio-6-mercaptopurine]	–	almost non-sensitive	–	almost non-sensitive	–	epithelial-like growth was inhibited	–	–	–	–	75%	65%	40%	~20%	15-30%	50 to 60%	70.5 ± 8.5 µM
